Measurements from paper PMC3085948 (Journal of medicinal chemistry, 2011).

Assays:
acute thermal pain = assay type: in vivo, mice; details: i.v. administration
rat FAAH = target: T1, rat FAAH (Rattus norvegicus, UniProt P97612); assay type: biochemical
T1 sequence (P97612 30-579 limits assumed): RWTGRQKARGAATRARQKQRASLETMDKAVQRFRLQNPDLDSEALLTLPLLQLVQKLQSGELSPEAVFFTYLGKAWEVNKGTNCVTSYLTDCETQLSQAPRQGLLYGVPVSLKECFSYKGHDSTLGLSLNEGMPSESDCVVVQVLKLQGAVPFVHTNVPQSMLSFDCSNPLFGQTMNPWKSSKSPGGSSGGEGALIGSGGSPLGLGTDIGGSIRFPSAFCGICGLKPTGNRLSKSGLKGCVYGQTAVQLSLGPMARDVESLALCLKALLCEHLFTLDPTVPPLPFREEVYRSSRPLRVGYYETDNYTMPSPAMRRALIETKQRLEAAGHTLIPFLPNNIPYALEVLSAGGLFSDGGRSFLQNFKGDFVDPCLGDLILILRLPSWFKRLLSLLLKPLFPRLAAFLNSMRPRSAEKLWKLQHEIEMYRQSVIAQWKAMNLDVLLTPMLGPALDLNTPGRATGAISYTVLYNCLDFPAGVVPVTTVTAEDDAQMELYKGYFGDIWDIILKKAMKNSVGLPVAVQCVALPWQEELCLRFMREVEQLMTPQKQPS

human FAAH = assay: FAAH inhibition, human FAAH from transfected COS-7 cells; assay type: biochemical; details: active (S)-enantiomers; hFAAH vs rFAAH
[1] = test system: endogenous lipid amide levels (anandamide, PEA, OEA, 2-AG, arachidonic acid); details: for site of effect on lipid levels (brain vs liver) / effect on endogenous levels of 2-AG / effect on endogenous levels of arachidonic acid / effect on endogenous levels of key lipid amides (anandamide, PEA): 30 mg/kg i.p., single mouse; for brain lipid amide levels, oral versus intraperitoneal dosing: p.o. 50 mg/kg vs i.p. 30 mg/kg, 3 mice per group
[2] = test system: chronic constriction injury (CCI) neuropathic pain; assay: CCI mechanical allodynia; assay type: in vivo, mice; details: 50 mg/kg p.o.
[3] = assay type: in vivo; details: 50 mg/kg oral, data not shown
[4] = test system: chronic constriction injury (CCI) neuropathic pain; assay: CCI acetone-induced cold allodynia; assay type: in vivo, mice; details: 50 mg/kg p.o.
[5] = Rat or human liver microsome stability; details: rat, human, microsomes
[6] = test system: human ether-a-go-go related gene (hERG); details: background statement; cited from earlier work
FAAH knockout mice = details: cited from earlier work
[7] = test system: cannabinoid (CB1 or CB2) or vanilloid receptors; details: background statement; cited from earlier work
[8] = in vivo; cited from earlier work
[9] = test system: common P450 metabolism enzymes; details: background statement; cited from earlier work

SMILES	duration of effect (acute thermal pain) [min]	mode of inhibition (Lineweaver–Burk analysis) (rat FAAH)	activity against human versus rat FAAH (human FAAH)	site of effect on lipid levels (brain vs liver) ([1]; 1 h)	brain lipid amide levels, oral versus intraperitoneal dosing [1]	effect on endogenous levels of 2-AG ([1]; 1 h)	effect on endogenous levels of arachidonic acid ([1]; 1 h)	effect on endogenous levels of key lipid amides (anandamide, PEA) ([1]; 1 h)	half-life [5] [min]	other results
O=C(O)c1cccc(-c2cnc(C(=O)C3CCc4cc(Oc5ccccc5)ccc4C3)o2)n1 (stereo not shown) [Compound 14, 6-(2-(6-Phenoxy-1,2,3,4-tetrahydronaphthalene-2-carbonyl)oxazol-5-yl)picolinic Acid]	150	reversible, competitive inhibitors	4 fold	principally seen peripherally (liver)	matched and even improved on the results observed with i.p. administration					time of maximal effect (acute thermal pain): 30 to 60 min; maximal antinociceptive effect (efficacy) (acute thermal pain; tail flick 52 °C): same maximal effect (efficacy) observed with morphine
O=C(c1ncc(-c2ccccn2)o1)C1CCc2cc(Oc3ccccc3)ccc2C1 (stereo not shown) [Compound 12, (6-Phenoxy-1,2,3,4-tetrahydronaphthalen-2-yl)(5-(pyridin-2-yl)oxazol-2-yl)methanone]		reversible, competitive inhibitors	no significant distinction	observed both in the brain (CNS) and liver (peripheral)	matched and even improved on the results observed with i.p. administration	without impacting	minimal impact	increased		duration of effect on mechanical allodynia [2]: > 6 h; mechanical allodynia, control paws [2]: no effect; mechanical allodynia, paws ipsilateral to CCI surgery [2]: significantly attenuated; cannabimimetic side effects [3]: did not produce catalepsy, hypothermia, or hypomotility; cold allodynia, control paws [4]: no effect; cold allodynia, paws ipsilateral to CCI surgery [4]: significantly attenuated; duration of effect on cold allodynia [4]: > 9 h; time of peak brain anandamide levels ([1]; 50 mg/kg p.o.): 1.5 to 3 h; duration of elevation of brain N-acylethanolamines ([1]; 50 mg/kg p.o., time course up to 9 h): ≥ 9 h; increase in brain levels of PEA and OEA ([1]; p.o. 10, 25 and 50 mg/kg, 1 h): 5.5–7.8 fold; increase in brain anandamide levels ([1]; p.o. 25–50 mg/kg, 1 h): 12–13 fold
CN1CC[C@]23c4c5ccc(O)c4O[C@H]2[C@@H](O)C=C[C@H]3[C@H]1C5 [morphine, reference compound]	150									
O=C(c1ncc(-c2ccccn2)o1)C1CCc2cc(OCc3ccccc3)ccc2C1 (stereo not shown) [Compound 18]									12 to 15	
O=C(c1ncc(-c2ccccn2)o1)C1Cc2ccc(Oc3ccccc3)cc2C1 (stereo not shown) [Compound 27]						without impacting	minimal impact	increased		
O=C(CCCCCCc1ccccc1)c1ncc(-c2ccccn2)o1 [Compound 2]			no significant distinction						2 to 4	inhibition of hERG [6]: does not significantly inhibit; antinociception in FAAH knockout mice (FAAH knockout mice): does not produce antinociception; binding to cannabinoid (CB1 or CB2) or vanilloid receptors [7]: does not bind; time to establish ketone/alcohol steady state equilibrium [8]: ≤ 15 min; inhibition of common P450 metabolism enzymes [9]: does not significantly inhibit
